Test results taken from paper PMC8805605, “Discovery of Dimeric Arylsulfonamides as Potent ADAM8 Inhibitors” (ACS Medicinal Chemistry Letters, 2021).

Legend:
ADAM17 = target: T1, ADAM17 (Homo sapiens, UniProt P78536); test: ADAM17 fluorometric inhibition assay; type: biochemical; conditions: recombinant enzyme, mean of three independent experiments in duplicate, read-out: In vitro inhibitory activity IC50 on ADAM17
T1 construct: kind gift of Franka Scharfenberg, University of Kiel
Experimental: The newly synthesized bivalent derivatives 1–3 were then tested in vitro on human recombinant ADAM8 in comparison with JG26 by a fluorometric assay. The inhibitory activity against a panel of MMPs and ADAM10/17 was determined as well to assess their selectivity profile.
(§1) (RFU). Percent of inhibition was calculated from control reactions without the inhibitor. IC50 was determined using the formula: v i/v o = 1/(1 + [I]/ IC50), where v i is the initial velocity of substrate cleavage in the presence of the inhibitor at concentration [I] and v o is the initial velocity in the absence of the inhibitor. Results were analyzed using SoftMax Pro software (version 5.4.3, Molecular Devices, Sunnyvale, CA) and Prism Software version 5.0 (GraphPad Software, Inc., La Jolla, CA, USA).
ADAM8 and ADAM17 inhibition assays
Recombinant ADAM8 and ADAM17 (kind gift of Franka Scharfenberg, University of Kiel) were diluted in assay buffer (25 mM Tris HCl, pH 8.0. 6x10-4 % Brij, 10 mM CaCl2, 10 mM ZnCl2) to a working concentration of 250 ng and incubated with inhibitors for 45 min in a total volume of 50 µL.
The fluorescent substrate PepDAB1310 was added in a concentration of 10 µM (in a volume of 50 µL). […]

MMP-2 = target: T2, MMP-2 (Homo sapiens, UniProt P08253); test: MMP-2 fluorometric inhibition assay; type: biochemical; conditions: mean of three independent experiments in duplicate, read-out: In vitro inhibitory activity IC50 on MMP-2
T2 construct: purchased Calbiochem (Merck-Millipore)
T2 sequence (P08253 110-660): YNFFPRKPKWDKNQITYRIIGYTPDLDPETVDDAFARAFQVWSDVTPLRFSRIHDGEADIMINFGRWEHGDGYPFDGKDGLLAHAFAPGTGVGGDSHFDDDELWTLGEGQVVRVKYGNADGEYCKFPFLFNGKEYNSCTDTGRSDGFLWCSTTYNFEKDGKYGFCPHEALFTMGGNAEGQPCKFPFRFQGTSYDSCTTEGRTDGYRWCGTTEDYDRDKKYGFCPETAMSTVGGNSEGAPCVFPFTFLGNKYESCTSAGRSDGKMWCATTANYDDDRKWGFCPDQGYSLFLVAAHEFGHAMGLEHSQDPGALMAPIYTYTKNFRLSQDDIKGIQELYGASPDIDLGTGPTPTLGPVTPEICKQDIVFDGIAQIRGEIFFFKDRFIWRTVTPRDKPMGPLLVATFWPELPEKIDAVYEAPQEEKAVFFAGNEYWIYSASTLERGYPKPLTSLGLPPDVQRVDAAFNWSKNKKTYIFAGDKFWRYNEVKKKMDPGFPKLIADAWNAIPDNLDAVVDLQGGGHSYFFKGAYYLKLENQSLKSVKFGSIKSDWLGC
Experimental: The newly synthesized bivalent derivatives 1–3 were then tested in vitro on human recombinant ADAM8 in comparison with JG26 by a fluorometric assay. The inhibitory activity against a panel of MMPs and ADAM10/17 was determined as well to assess their selectivity profile. […]
VI. Biological Activity on Isolated Enzymes
MMP and ADAM10 inhibition assays.
Recombinant human MMP-14 catalytic domain was a kind gift of Prof. Gillian Murphy (Department of […]
Oncology, University of Cambridge, UK). Pro-MMP-1, pro-MMP-2, and pro-MMP-9, were purchased […]
from Calbiochem (Merck-Millipore). Pro-MMP-12 and ADAM10 were purchased from R&D Systems.
Proenzymes were activated immediately prior to use with p-aminophenylmercuric acetate (APMA 2 […]
mM for 1 h at 37°C for MMP-2 and MMP-1, 1 mM for 1 h at 37°C for MMP-9). Pro-MMP-12 was […]
auto activated by incubating in the fluorometric assay buffer (FAB: Tris 50 mM, pH = 7.5, NaCl 150 […]
mM, CaCl2 10 mM, Brij 35 0.05% and DMSO 1%) for 30 h at 37°C. For assay measurements, each […]
inhibitor stock solution (DMSO, 10 mM) was further diluted in FAB at seven different concentrations.
Activated enzyme (final concentration 0.56 nM for MMP-2, 1.3 nM for MMP-9, 1.0 nM for MMP- […]
14cd, 2.0 nM for MMP-1, 2.3 nM for MMP-12 and 20 nM for ADAM10) and inhibitor solutions were […]
incubated in the assay buffer for 3 h at 25 °C. ADAM10 was incubated for 1 h at 37°C in a different […]
buffer at pH 9 (Tris 25 mM, ZnCl2 25 µM, Brij-35 0.005 %). After the addition of 200 µM solution of […]
the fluorogenic substrate Mca-Lys-Pro-Leu-Gly-Leu-Dap(Dnp)-Ala-Arg-NH2 (Bachem) for all the […]
enzymes in DMSO (final concentration 2 µM for all enzymes, 10 µM for ADAM10), the hydrolysis […]
was monitored every 10 sec. for 15 min. recording the increase in fluorescence (λ ex = 325 nm, λ em = […]
400 nm) using a Molecular Devices SpectraMax Gemini XPS plate reader. The assays were performed […]
in triplicate in a total volume of 200 μL per well in 96-well microtitre plates (Corning, black, NBS).
Control wells lack inhibitor. The MMP inhibition activity was expressed in relative fluorescent units […]
as §1
ADAM8 and ADAM17 inhibition assays […]

T1 sequence (P78536 215-824, species assumed): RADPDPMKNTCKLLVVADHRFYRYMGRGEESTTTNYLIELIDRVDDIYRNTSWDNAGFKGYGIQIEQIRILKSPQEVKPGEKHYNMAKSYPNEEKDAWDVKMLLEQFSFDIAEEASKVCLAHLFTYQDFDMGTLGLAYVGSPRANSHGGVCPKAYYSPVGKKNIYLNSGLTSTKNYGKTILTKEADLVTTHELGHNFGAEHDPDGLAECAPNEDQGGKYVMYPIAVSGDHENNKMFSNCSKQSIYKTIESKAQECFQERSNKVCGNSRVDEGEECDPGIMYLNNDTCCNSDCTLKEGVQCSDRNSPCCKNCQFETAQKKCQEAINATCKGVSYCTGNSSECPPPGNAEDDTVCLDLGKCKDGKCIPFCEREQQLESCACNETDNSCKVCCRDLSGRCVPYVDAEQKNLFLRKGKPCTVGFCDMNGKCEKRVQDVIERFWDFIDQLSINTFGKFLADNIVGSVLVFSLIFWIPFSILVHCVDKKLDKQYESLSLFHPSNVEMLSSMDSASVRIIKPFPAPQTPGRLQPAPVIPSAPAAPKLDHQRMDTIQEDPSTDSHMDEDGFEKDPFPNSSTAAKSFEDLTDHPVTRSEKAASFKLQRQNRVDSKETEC

| SMILES | IC50 (ADAM17) [nM] | IC50 (MMP-2) [nM] |
| --- | --- | --- |
| O=C(CCCNC(=O)c1cccc(C(=O)NCCCC(=O)NCCC[C@@H](NS(=O)(=O)c2ccc(OCc3cc(Br)cc(Br)c3)cc2)C(=O)NO)c1)NCCC[C@@H](NS(=O)(=O)c1ccc(OCc2cc(Br)cc(Br)c2)cc1)C(=O)NO [Compound 1] | 52 | 4660 |
| O=C(NCCC[C@@H](NS(=O)(=O)c1ccc(OCc2cc(Br)cc(Br)c2)cc1)C(=O)NO)c1cccc(C(=O)NCCC[C@@H](NS(=O)(=O)c2ccc(OCc3cc(Br)cc(Br)c3)cc2)C(=O)NO)c1 [Compound 2] | 24 | 3000 |
| O=C(NCCC[C@@H](NS(=O)(=O)c1ccc(OCc2cc(Br)cc(Br)c2)cc1)C(=O)NO)NCCC[C@@H](NS(=O)(=O)c1ccc(OCc2cc(Br)cc(Br)c2)cc1)C(=O)NO [Compound 3] | 55 | 900 |
| NC(=O)NCCC[C@@H](NS(=O)(=O)c1ccc(OCc2cc(Br)cc(Br)c2)cc1)C(=O)NO [JG26, reference compound] | 1.9 | 240 |
